According to paper PMC8041284, “Tunable Methacrylamides for Covalent Ligand Directed Release Chemistry” (Journal of the American Chemical Society, 2021):

Target: BTK (Homo sapiens, UniProt Q06187)
Test: biochemical
Conditions: read-out: BTK inhibition (%)

BTK, sequence (Q06187 402-655 limits assumed): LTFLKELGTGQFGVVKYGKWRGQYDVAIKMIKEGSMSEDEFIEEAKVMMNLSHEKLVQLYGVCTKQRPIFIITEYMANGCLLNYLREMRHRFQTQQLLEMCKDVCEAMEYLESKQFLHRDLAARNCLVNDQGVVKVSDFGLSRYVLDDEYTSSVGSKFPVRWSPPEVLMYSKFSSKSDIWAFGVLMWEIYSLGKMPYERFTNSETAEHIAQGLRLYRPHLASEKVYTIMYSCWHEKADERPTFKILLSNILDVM

Structure (SMILES)	inhibition at 10 µM [%]
CCN1C[C@]2(COC)CC[C@H](OC)[C@]34C1[C@H](C[C@H]23)[C@@]1(O)C[C@H](OC)[C@H]2C[C@@H]4[C@@H]1[C@H]2O [PCM-0216478]	10.8
C=C[C@@]12CN(C)[C@H]3C[C@]14C(=Nc1ccccc14)[C@@H]1C[C@@H]2[C@@H]3CO1 [PCM-0216515]	-16.2
C=C1CC[C@H]2[C@@H](/C=C(\C)C(=O)[C@@]3(OC(C)=O)C[C@H](C)[C@H](OC(=O)c4ccccc4)[C@@H]3[C@H]1OC(C)=O)C2(C)C [PCM-0216520]	-20.1

Same assay, conditions: read-out: BTK inhibition (%), 0.75 uM BTK, […] probe 3l, 15 min preincubation

Structure (SMILES)	inhibition at 10 µM [%]
CC1=C[C@H]2Cc3[nH]c(=O)ccc3[C@]3(C1)NCCC[C@H]23 [PCM-0216475]	-10
c1cc2c(c3c1CC1c4cc5c(cc4CCN1C3)OCO5)OCO2 (stereo not drawn) [PCM-0216476]	-13.9
COc1cc(/C=C/C=O)ccc1O [PCM-0216477]	1.5
C=C1[C@@H]2CC[C@@H](C2)[C@]1(C)CC/C=C(\C)CO [PCM-0216479]	0
C=C1C[C@@]23CC[C@H]4[C@@](C)(CCC[C@@]4(C)C(=O)O)[C@@H]2CC[C@]1(O[C@@H]1O[C@H](CO)[C@@H](O)[C@H](O)[C@H]1O[C@@H]1O[C@H](CO)[C@@H](O)[C@H](O)[C@H]1O)C3 [PCM-0216480]	-3.9
C/C1=C\CC[C@]23O[C@H]2[C@@H](OC3=O)c2c(C)coc2C1 [PCM-0216481]	-16.2
O=c1cc(-c2ccc(O[C@@H]3O[C@H](CO)[C@@H](O)[C@H](O)[C@H]3O)cc2)oc2cc(O)c([C@@H]3O[C@H](CO)[C@@H](O)[C@H](O)[C@H]3O[C@@H]3OC[C@H](O)[C@H](O)[C@H]3O)c(O)c12 [PCM-0216482]	-22.4
COc1cc2c(c(O)c1OC)-c1c(cc(OC)c(OC)c1OC)C[C@@H](C)[C@@H](C)C2 [PCM-0216483]	23.9
CC(/C=C/C=C(\C)C(=O)O[C@@H]1O[C@H](CO)[C@@H](O)[C@H](O)[C@H]1O)=C\C=C\C=C(C)\C=C\C=C(/C)C(=O)O[C@@H]1O[C@H](CO[C@@H]2O[C@H](CO)[C@@H](O)[C@H](O)[C@H]2O)[C@@H](O)[C@H](O)[C@H]1O [PCM-0216484]	16.2
O=c1cc(-c2ccc(O)cc2)oc2c([C@@H]3OC[C@H](O)[C@H](O)[C@H]3O)c(O)c([C@@H]3O[C@H](CO)[C@@H](O)[C@H](O)[C@H]3O)c(O)c12 [PCM-0216486]	-13.9
COc1ccc([C@@H]2CC(=O)c3c(O)cc(O[C@@H]4O[C@H](CO[C@@H]5O[C@@H](C)[C@H](O)[C@@H](O)[C@H]5O)[C@@H](O)[C@H](O)[C@H]4O)cc3O2)cc1 [PCM-0216487]	-3.1
C=C(C)[C@@H]1CC[C@@]2(C)CCC(=O)C(C)=C2C1 [PCM-0216488]	-11.6
COc1ccc2cc3[n+](cc2c1O)CCc1cc2c(cc1-3)OCO2 [PCM-0216489]	97.3
CC1(C)CC[C@]2(C(=O)O)CCC3=C(CC[C@@H]4[C@@]5(C)C[C@H](O)[C@H](O)[C@@](C)(C(=O)O)[C@@H]5CC[C@@]34C)[C@@H]2C1 [PCM-0216490]	10.8
C=C[C@H]1CN2CC[C@@]3(C(=O)Nc4ccccc43)[C@@H]2C[C@@H]1/C(=C\OC)C(=O)OC [PCM-0216491]	-7.7
COc1cc2c(=O)c3c(O)c([C@@H]4O[C@H](CO[C@@H]5OC[C@](O)(CO)[C@H]5O)[C@@H](O)[C@H](O)[C@H]4O)c(O)cc3oc2cc1O [PCM-0216492]	-13.1
C[C@@H]1O[C@@H](OC[C@H]2O[C@@H](Oc3cc(O)c4c(c3)O[C@H](c3ccc(O)cc3)CC4=O)[C@H](O)[C@@H](O)[C@@H]2O)[C@H](O)[C@H](O)[C@H]1O [PCM-0216493]	10.8
OCC1(O)COc2cc(O)ccc2-c2cc(O)c(O)cc2C1 (stereo not drawn) [PCM-0216494]	39.4
O=C(/C=C/c1ccc(O)cc1)OC[C@H]1O[C@@H](Oc2c(-c3ccc(O)cc3)oc3cc(O)cc(O)c3c2=O)[C@H](O)[C@@H](O)[C@@H]1O [PCM-0216495]	15.3
COc1ccc(C[C@@H]2c3cc(Oc4cc(C[C@@H]5c6cc(O)c(OC)cc6CCN5C)ccc4O)c(OC)cc3CCN2C)cc1 [PCM-0216496]	16.2
O=c1cc(-c2ccc(O)c(O)c2)oc2cc(O)c([C@@H]3O[C@H](CO)[C@@H](O)[C@H](O)[C@H]3O)c(O)c12 [PCM-0216497]	-4.6
COc1cc(C2Oc3ccc([C@H]4Oc5cc(O)cc(O)c5C(=O)[C@@H]4O)cc3OC2CO)ccc1O (stereo partly drawn) [PCM-0216498]	21.6
CC1(C)O[C@H]1COc1c2ccoc2cc2oc(=O)ccc12 [PCM-0216499]	0.8
COc1cc2c(cc1OC)[C@H]1[C@@H](C)c3ccc(OC)c(OC)c3CN1CC2 [PCM-0216500]	-27
COc1ccc2[nH]c(=O)oc2c1 [PCM-0216501]	-4.6
COc1cc2oc(=O)ccc2cc1O [PCM-0216502]	-10
C=C(C)[C@@H]1CC[C@]2(C(=O)O)CC[C@]3(C)[C@H](CC[C@@H]4[C@@]5(C)CC[C@H](O[C@@H]6OC[C@H](O)[C@H](O)[C@H]6O[C@@H]6O[C@@H](C)[C@H](O)[C@@H](O)[C@H]6O)[C@@](C)(CO)[C@@H]5CC[C@]43C)[C@@H]12 [PCM-0216514]	34
C[C@@H](CC[C@@]1(O)O[C@H]2C[C@H]3[C@@H]4CC[C@@H]5C[C@@H](O[C@@H]6O[C@H](CO)[C@H](O)[C@H](O)[C@H]6O[C@@H]6O[C@H](CO)[C@@H](O)[C@H](O)[C@H]6O)CC[C@]5(C)[C@H]4CC[C@]3(C)[C@H]2[C@@H]1C)CO[C@@H]1O[C@H](CO)[C@@H](O)[C@H](O)[C@H]1O [PCM-0216516]	-3.9
CC(C)=CCC[C@](C)(O[C@@H]1O[C@H](CO)[C@@H](O)[C@H](O)[C@H]1O)[C@H]1CC[C@]2(C)[C@@H]1[C@H](O)C[C@@H]1[C@@]3(C)CC[C@H](O)C(C)(C)[C@@H]3[C@@H](O)C[C@]12C [PCM-0216532]	-11.6

Results, then the molecule that gave them:

inhibition at 10 µM [%]	Structure (SMILES)
35.7	CC(=O)O[C@H](CC=C(C)C)C1=CC(=O)c2c(O)ccc(O)c2C1=O [PCM-0216503]
8.5	O=C(/C=C/c1ccc(O)c2c1[C@H](C(=O)O)[C@@H](c1ccc(O)c(O)c1)O2)O[C@H](Cc1ccc(O)c(O)c1)C(=O)O [PCM-0216504]
-1.5	CC(C)(O[C@@H]1O[C@H](CO)[C@@H](O)[C@H](O)[C@H]1O)[C@H]1Cc2cc3ccc(=O)oc3cc2O1 [PCM-0216505]
6.9	CCCCC1OC(=O)c2ccccc21 (stereo not drawn) [PCM-0216506]
16.2	CC(C)=CC(=O)O[C@H]1Cc2cc3ccc(=O)oc3cc2OC1(C)C [PCM-0216507]
16.2	CC(=O)O[C@H]1C(=O)[C@]2(C)[C@H](O)C[C@H]3OC[C@@]3(OC(C)=O)[C@H]2[C@H](OC(=O)c2ccccc2)[C@]2(O)C[C@H](OC(=O)[C@H](O)[C@@H](NC(=O)c3ccccc3)c3ccccc3)C(C)=C1C2(C)C [PCM-0216508]
-10	CC(C)=CCC[C@](C)(O[C@@H]1O[C@H](CO[C@@H]2O[C@@H](CO)[C@H](O)[C@H]2O)[C@@H](O)[C@H](O)[C@H]1O)[C@H]1CC[C@]2(C)[C@@H]1[C@H](O)C[C@@H]1[C@@]3(C)CC[C@H](O[C@@H]4O[C@H](CO)[C@@H](O)[C@H](O)[C@H]4O[C@@H]4O[C@H](CO)[C@@H](O)[C@H](O)[C@H]4O)C(C)(C)[C@@H]3CC[C@]12C [PCM-0216509]
-15.4	COc1ccc(-c2oc3c(CC=C(C)C)c(O[C@@H]4C[C@H](CO)[C@@H](O)[C@H](O)[C@H]4O)cc(O)c3c(=O)c2O[C@@H]2O[C@@H](C)[C@H](O)[C@@H](O)[C@H]2O[C@@H]2O[C@H](CO)[C@@H](O)[C@H](O)[C@H]2O)cc1 [PCM-0216510]
-8.5	COc1ccc(-c2oc3c(CC=C(C)C)c(O[C@@H]4O[C@H](CO)[C@@H](O)[C@H](O)[C@H]4O)cc(O)c3c(=O)c2O[C@@H]2O[C@@H](C)[C@H](O)[C@@H](O)[C@H]2O[C@@H]2OC[C@@H](O)[C@H](O)[C@H]2O)cc1 [PCM-0216511]
-13.1	COc1ccc(-c2oc3c(CC=C(C)C)c(O[C@@H]4O[C@H](CO)[C@@H](O)[C@H](O)[C@H]4O)cc(O)c3c(=O)c2O[C@@H]2O[C@@H](C)[C@H](O)[C@@H](O)[C@H]2O[C@@H]2O[C@@H](C)[C@H](O)[C@@H](O)[C@H]2O)cc1 [PCM-0216512]
38.6	COc1c(C)c(O)cc2[o+]c(-c3ccccc3)ccc12 [PCM-0216513]
-11.6	Nc1[nH]c(=O)nc2c1ncn2[C@@H]1O[C@H](CO)[C@@H](O)[C@H]1O [PCM-0216517]
-24.7	C[C@H](C[C@H](O)[C@H]1OC1(C)C)C1=C2C[C@H](O)[C@H]3[C@@]4(C)CCC(=O)C(C)(C)[C@@H]4CC[C@]3(C)[C@@]2(C)CC1 [PCM-0216518]
-29.3	C[C@H](C[C@H](O)[C@@H](O)C(C)(C)O)C1=C2C[C@H](O)[C@H]3[C@@]4(C)CCC(=O)C(C)(C)[C@@H]4CC[C@]3(C)[C@@]2(C)CC1 [PCM-0216519]
110	COc1cc(/C=C/C(=O)CC(=O)/C=C/c2ccc(O)cc2)ccc1O [PCM-0216521]
-8.5	C[C@@H]1CCCC2=CC(=O)[C@@H]3[C@@H](C3(C)C)[C@]21C [PCM-0216523]
3.9	CC(=O)Cc1cc(=O)c2c(C)cc(O)c([C@@H]3O[C@H](CO)[C@@H](O)[C@H](O)[C@H]3O)c2o1 [PCM-0216524]
14.7	COc1ccc(-c2cc(=O)c3c(O)cc(O[C@@H]4O[C@H](CO[C@@H]5O[C@@H](C)[C@H](O)[C@@H](O)[C@H]5O)[C@@H](O)[C@H](O)[C@H]4O)cc3o2)cc1 [PCM-0216526]
19.3	O=C(/C=C/c1ccc(O[C@@H]2O[C@H](CO)[C@@H](O)[C@H](O)[C@H]2O)cc1)c1ccc(O)cc1O [PCM-0216527]
-9.3	COc1cc2c(cc1OC)[C@@H](Cc1ccc(Oc3cc(C[C@@H]4c5cc(OC)c(OC)cc5CCN4C)ccc3O)cc1)N(C)CC2 [PCM-0216529]
20.8	C[C@@]1(CO)C[C@@H](O)C[C@@]2(C)[C@@H]3CC[C@](C)([C@@H](O)CO)C=C3CC[C@H]12 [PCM-0216530]
28.6	CC1(C)C=Cc2cc(-c3coc4cc(O)ccc4c3=O)ccc2O1 [PCM-0216531]
